# Target: T1, arginase Th2-dépendante (Homo sapiens, UniProt P05089)
# T1 sequence (P05089 1-322): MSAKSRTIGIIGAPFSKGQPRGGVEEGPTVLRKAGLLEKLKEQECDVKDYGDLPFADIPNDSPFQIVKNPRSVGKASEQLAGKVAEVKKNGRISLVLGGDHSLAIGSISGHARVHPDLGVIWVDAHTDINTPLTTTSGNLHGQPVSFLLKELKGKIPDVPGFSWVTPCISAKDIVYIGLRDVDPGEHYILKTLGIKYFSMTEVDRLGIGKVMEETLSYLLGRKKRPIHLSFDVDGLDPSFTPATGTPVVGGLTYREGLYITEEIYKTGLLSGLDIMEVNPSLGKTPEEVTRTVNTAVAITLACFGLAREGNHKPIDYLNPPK
# Assay: Inhibition of Th2-dependent arginase
# Format: biochemical
compound,measurement,value
"NCCCC[C@H](N)C(=O)O [L-Lysine, L-lysine]",action sur l'arginase Th2-dépendante,action inhibitrice

# — patent publication EP1967187A1, “Composition based on rutin and L-lysine” (Ennamany, Rachid, priority 2007, dated 2008)
